Measured values from ChEMBL document CHEMBL1833788, “Selective water-soluble gelatinase inhibitor prodrugs” (J Med Chem, 2011).

Assays:
Mus musculus [1] = test: Terminal half life in C57B1/6 mouse plasma assessed as 4-[4-((Thiiran-2-yl)methylsulphonyl)phenoxy]benzamine level at […], iv administered as single dose; format: ADME, organism-based; conditions: in vivo
Mus musculus [2] = test: Prodrug conversion in C57B1/6 mouse plasma assessed as parent compound level at […], iv administered as single bolus dose after 7 to 8 mins by reversed-phase LC/MS analysis; format: ADME, organism-based; conditions: in vivo
Mus musculus [3] = test: Prodrug conversion in C57B1/6 mouse assessed as N-(4-(4-(thiiran-2-ylmethylsulfonyl)phenoxy)phenyl)acetamide level in plasma at […], iv administered as single bolus dose after 11 to 12 mins by reversed-phase LC/MS analysis; conditions: in vivo
Mus musculus [4] = test: Prodrug conversion in C57B1/6 mouse plasma assessed as parent compound level at […], iv administered as single bolus dose after 120 to 123 mins by reversed-phase LC/MS analysis; format: ADME, organism-based; conditions: in vivo, read-out: Drug metabolism
Mus musculus [5] = test: Prodrug conversion in C57B1/6 mouse plasma assessed as parent compound level at […], iv administered as single bolus dose after 4 to 5 mins by reversed-phase LC/MS analysis; format: ADME, organism-based; conditions: in vivo, read-out: Drug metabolism
Mus musculus [6] = test: Prodrug conversion in C57B1/6 mouse assessed as 4-[4-((Thiiran-2-yl)methylsulphonyl)phenoxy]benzamine level in plasma at […], iv administered as single bolus dose after 240 mins by reversed-phase HPLC/UV analysis; format: ADME, organism-based; conditions: in vivo, 4 h, read-out: Drug metabolism
Mus musculus [7] = test: Prodrug conversion in C57B1/6 mouse assessed as N-(4-(4-(thiiran-2-ylmethylsulfonyl)phenoxy)phenyl)acetamide level in plasma at […], iv administered as single bolus dose after 42 mins by reversed-phase HPLC/UV analysis; format: ADME, organism-based; conditions: in vivo, 0.7 h
Mus musculus [8] = test: AUC (0 to last) in C57B1/6 mouse plasma assessed as N-(4-(4-(thiiran-2-ylmethylsulfonyl)phenoxy)phenyl)acetamide level at […], iv administered as single bolus dose; format: ADME, organism-based; conditions: in vivo
Mus musculus [9] = test: Distribution half life in C57B1/6 mouse plasma assessed as parent compound level at […], iv administered as single bolus dose; format: ADME, organism-based; conditions: in vivo
Mus musculus [10] = test: Prodrug conversion in C57B1/6 mouse plasma assessed as parent compound level at […], iv administered as single bolus dose after 240 mins by reversed-phase LC/MS analysis; format: ADME, organism-based; conditions: in vivo, 4 h, read-out: Drug metabolism
Mus musculus [11] = test: Prodrug conversion in C57B1/6 mouse assessed as N-(4-(4-(thiiran-2-ylmethylsulfonyl)phenoxy)phenyl)acetamide level in plasma at […], iv administered as single bolus dose after 62 to 66 mins by reversed-phase LC/MS analysis; conditions: in vivo
Mus musculus [12] = test: Distribution half life in C57B1/6 mouse plasma assessed as 4-[4-((Thiiran-2-yl)methylsulphonyl)phenoxy]benzamine level at […], iv administered as single dose; format: ADME, organism-based; conditions: in vivo
Mus musculus [13] = test: Prodrug conversion in C57B1/6 mouse assessed as N-(4-(4-((Thiiran-2-ylmethyl)sulfonyl)phenoxy)phenyl) hydroxylamine level in urine at […], iv administered as single dose by reversed-phase LC/MS analysis; format: ADME, organism-based; conditions: in vivo
Mus musculus [14] = test: Prodrug conversion in C57B1/6 mouse plasma assessed as parent compound level at […], iv administered as single bolus dose after 42 mins by reversed-phase LC/MS analysis; format: ADME, organism-based; conditions: in vivo, 0.7 h
Mus musculus [15] = test: Prodrug conversion in C57B1/6 mouse assessed as 4-[4-((Thiiran-2-yl)methylsulphonyl)phenoxy]benzamine level in plasma at […], iv administered as single bolus dose after 42 mins by reversed-phase HPLC/UV analysis; format: ADME, organism-based; conditions: in vivo, 0.7 h, read-out: Drug metabolism
Mus musculus [16] = test: Clearance in C57B1/6 mouse plasma assessed as parent compound level at […], iv administered as single bolus dose; format: ADME, organism-based; conditions: in vivo
Mus musculus [17] = test: Terminal half life in C57B1/6 mouse plasma assessed as parent compound level at […], iv administered as single bolus dose; format: ADME, organism-based; conditions: in vivo
Mus musculus [18] = test: Prodrug conversion in C57B1/6 mouse assessed as 4-[4-((Thiiran-2-yl)methylsulphonyl)phenoxy]benzamine level in plasma at […], iv administered as single bolus dose after 120 to 123 mins by reversed-phase HPLC/UV analysis; format: ADME, organism-based; conditions: in vivo
Mus musculus [19] = test: Prodrug conversion in C57B1/6 mouse assessed as 4-[4-((Thiiran-2-yl)methylsulphonyl)phenoxy]benzamine level in plasma at […], iv administered as single bolus dose after 2 to 3 mins by reversed-phase HPLC/UV analysis; format: ADME, organism-based; conditions: in vivo
Mus musculus [20] = test: Prodrug conversion in C57B1/6 mouse plasma assessed as parent compound level at […], iv administered as single bolus dose after 2 to 3 mins by reversed-phase LC/MS analysis; format: ADME, organism-based; conditions: in vivo, read-out: Drug metabolism
Mus musculus [21] = test: AUC (0 to last) in C57B1/6 mouse plasma assessed as parent compound level at […], iv administered as single bolus dose; format: ADME, organism-based; conditions: in vivo
Mus musculus [22] = test: Prodrug conversion in C57B1/6 mouse assessed as N-(4-(4-((Thiiran-2-ylmethyl)sulfonyl)phenoxy)phenyl) hydroxylamine level in plasma at […], iv administered as single dose by reversed-phase LC/MS analysis; format: ADME, organism-based; conditions: in vivo
Mus musculus [23] = test: AUC (0 to infinity) in C57B1/6 mouse plasma assessed as N-(4-(4-(thiiran-2-ylmethylsulfonyl)phenoxy)phenyl)acetamide level at […], iv administered as single bolus dose; format: ADME, organism-based; conditions: in vivo, BLD = below limit of detection
Mus musculus [24] = test: Prodrug conversion in C57B1/6 mouse assessed as 4-[4-((Thiiran-2-yl)methylsulphonyl)phenoxy]benzamine level in plasma at […], iv administered as single bolus dose after 11 to 12 mins by reversed-phase HPLC/UV analysis; format: ADME, organism-based; conditions: in vivo, read-out: Drug metabolism
Mus musculus [25] = test: Prodrug conversion in C57B1/6 mouse assessed as 4-[4-((Thiiran-2-yl)methylsulphonyl)phenoxy]benzamine level in plasma at […], iv administered as single bolus dose after 7 to 8 mins by reversed-phase HPLC/UV analysis; format: ADME, organism-based; conditions: in vivo
Mus musculus [26] = test: Volume of distribution in C57B1/6 mouse plasma assessed as parent compound level at […], iv administered as single bolus dose; format: ADME, organism-based; conditions: in vivo
Mus musculus [27] = test: Terminal half life in C57B1/6 mouse plasma assessed as N-(4-(4-(thiiran-2-ylmethylsulfonyl)phenoxy)phenyl)acetamide level at […], iv administered as single bolus dose; format: ADME, organism-based; conditions: in vivo, BLD = below limit of detection
Mus musculus [28] = test: Prodrug conversion in C57B1/6 mouse plasma assessed as parent compound level at […], iv administered as single bolus dose after 62 to 66 mins by reversed-phase LC/MS analysis; format: ADME, organism-based; conditions: in vivo, read-out: Drug metabolism
Mus musculus [29] = test: Prodrug conversion in C57B1/6 mouse assessed as N-(4-(4-(thiiran-2-ylmethylsulfonyl)phenoxy)phenyl)acetamide level in plasma at […], iv administered as single bolus dose after 2 to 3 mins by reversed-phase LC/MS analysis; conditions: in vivo
Mus musculus [30] = test: Prodrug conversion in C57B1/6 mouse plasma assessed as parent compound level at […], iv administered as single bolus dose after 11 to 12 mins by reversed-phase LC/MS analysis; format: ADME, organism-based; conditions: in vivo, read-out: Drug metabolism
Mus musculus [31] = test: AUC (0 to infinity) in C57B1/6 mouse plasma assessed as 4-[4-((Thiiran-2-yl)methylsulphonyl)phenoxy]benzamine level at […], iv administered as single bolus dose; format: ADME, organism-based; conditions: in vivo
Mus musculus [32] = test: Prodrug conversion in C57B1/6 mouse assessed as 4-[4-((Thiiran-2-yl)methylsulphonyl)phenoxy]benzamine level in plasma at […], iv administered as single bolus dose after 62 to 66 mins by reversed-phase HPLC/UV analysis; format: ADME, organism-based; conditions: in vivo, read-out: Drug metabolism

Q: What does the source list for `Cl.N=C(N)NCCC[C@H](N)C(=O)Nc1ccc(Oc2ccc(S(=O)(=O)CC3CS3)cc2)cc1` (some centres not stated)?
A: beta t1/2 (Mus musculus [1]): 1.15 h; Drug metabolism (Mus musculus [2]): 1.28 µM; Drug metabolism (Mus musculus [3]): 0.149 µM; concentration (Mus musculus [4]): 17.1 nM; concentration (Mus musculus [5]): 7320 nM; concentration (Mus musculus [6]): 14.5 nM; Drug metabolism (Mus musculus [7]): 0.0358 µM; AUClast (Mus musculus [8]): 4.22 µM·min; alphat1/2 (Mus musculus [9]): 0.88 min; concentration (Mus musculus [10]): 8.3 nM; Drug metabolism (Mus musculus [11]): 0.0121 µM; alphat1/2 (Mus musculus [12]): 2.9 min; Drug metabolism (Mus musculus [13]): Not Active; Drug metabolism (Mus musculus [14]): 0.0872 µM; concentration (Mus musculus [15]): 207 nM; CL (Mus musculus [16]): 58.2 mL/min/kg; beta t1/2 (Mus musculus [17]): 4.33 h; Drug metabolism (Mus musculus [18]): 0.0248 µM; Drug metabolism (Mus musculus [19]): 12.3 µM; concentration (Mus musculus [20]): 35100 nM; AUClast (Mus musculus [21]): 360 µM·min; Drug metabolism (Mus musculus [22]): Not Active; AUC (Mus musculus [23]): BLD; concentration (Mus musculus [24]): 2450 nM; Drug metabolism (Mus musculus [25]): 4.5 µM; Vd (Mus musculus [26]): 0.0978 L/kg; beta t1/2 (Mus musculus [27]): BLD; concentration (Mus musculus [28]): 38.5 nM; Drug metabolism (Mus musculus [29]): 0.0354 µM; concentration (Mus musculus [30]): 1580 nM; AUC (Mus musculus [31]): 138 µM·min; concentration (Mus musculus [32]): 90.8 nM
